Data taken from PubChem BioAssay (NCI).
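Compound exposure: 48 hours, 5 concentrations, 96-well plates. TGI is the concentration that stops growth completely.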

Tests used:
Test in all cases: NCI anticancer screen, dose series, 48 h
[1] = system: 786-0 renal
[2] = system: A549 NSCLC
[3] = system: ACHN renal
[4] = system: CAKI-1 renal
[5] = system: CCRF-CEM leukemia
[6] = system: COLO 205 colon
[7] = system: DLD-1 colon
[8] = system: DMS 114 small cell lung
[9] = system: DMS 273 small cell lung
[10] = system: EKVX NSCLC
[11] = system: HCC-2998 colon
[12] = system: HCT-116 colon
[13] = system: HCT-15 colon
[14] = system: HOP-62 NSCLC
[15] = system: HT29 colon
[16] = system: K-562 leukemia
[17] = system: KM12 colon
[18] = system: KM20L2 colon
[19] = system: M14 melanoma
[20] = system: M19-MEL melanoma
[21] = system: MALME-3M melanoma
[22] = system: MOLT-4 leukemia
[23] = system: NCI-H226 lung
[24] = system: NCI-H23 lung
[25] = system: NCI-H460 lung
[26] = system: NCI-H522 lung
[27] = system: OVCAR-3 ovarian
[28] = system: OVCAR-4 ovarian
[29] = system: OVCAR-5 ovarian
[30] = system: OVCAR-8 ovarian
[31] = system: RPMI-8226 leukemia
[32] = system: SF-268 CNS
[33] = system: SF-295 CNS
[34] = system: SF-539 CNS
[35] = system: SK-MEL-2 melanoma
[36] = system: SK-MEL-28 melanoma
[37] = system: SK-MEL-5 melanoma
[38] = system: SK-OV-3 ovarian
[39] = system: SN12C renal
[40] = system: SNB-19 CNS
[41] = system: SNB-75 CNS
[42] = system: SNB-78 CNS
[43] = system: SR leukemia
[44] = system: UACC-257 melanoma
[45] = system: UACC-62 melanoma
[46] = system: UO-31 renal
[47] = system: XF 498 CNS

Measured: TGI

Cc1c2n(c3ccccc13)CC1C2N(C)OC1(C)C (configuration not stated)
> 100 µM: all assays above
